Experimental data from US10822336B2, “Crystals of [2-(1-methyl-1H-pyrazol-4-yl)-6(morpholin-4-yl)-9H-purin-8-yl][4-(morpholin-4-yl)piperidin-1-yl]methanone and pharmaceutically acceptable salt thereof” (Daiichi Sankyo Company, Limited, priority 2016, dated 2020).

Experiments:
[1] = Oral bioavailability (BA) in mice; format: in vivo; details: plasma; male Swiss mouse, 10.0 mg/kg oral vs 3.0 mg/kg intravenous
Method: Oral Bioavailability (BA) in Mice
(§1) To a male Swiss mouse (23±3 g), the compound (I) was intravenously administered as a solution containing the compound (I) (0.3 mg/mL) in a vehicle containing polysorbate and dextrose (pH5.0) or orally as a suspension of the compound (I) (1.0 mg/mL) in methyl cellulose. The final dosage in the case of intravenous administration was 3.0 mg/body weight (1 kg) or that in the case of oral administration was 10.0 mg/body weight (1 kg). A plasma sample was analyzed for the compound (I) by the LC-MS/MS method. Pharmacokinetic parameters were estimated by moment analysis. WinNonlin software 6.1 (Pharsight) was used for estimating the PK parameters. Oral bioavailability was calculated based on dose-normalized oral exposure and intravenous plasma exposure amounts.

PI3Kβ = molecular target: T1, PI3Kβ (Homo sapiens, UniProt P42338); experiment: In-vitro enzyme assay (Kinase-Glo luminescent kinase assay), PI3Kβ; format: biochemical; details: enzyme 2.29 μg/mL, ATP 10 μM, PIP2 60 μM, 2 hours; read-out: inhibitory activity (IC50) against PI3Kβ
T1 construct: purchased Proteros, Germany
T1 sequence (P42338 whole entry, species assumed): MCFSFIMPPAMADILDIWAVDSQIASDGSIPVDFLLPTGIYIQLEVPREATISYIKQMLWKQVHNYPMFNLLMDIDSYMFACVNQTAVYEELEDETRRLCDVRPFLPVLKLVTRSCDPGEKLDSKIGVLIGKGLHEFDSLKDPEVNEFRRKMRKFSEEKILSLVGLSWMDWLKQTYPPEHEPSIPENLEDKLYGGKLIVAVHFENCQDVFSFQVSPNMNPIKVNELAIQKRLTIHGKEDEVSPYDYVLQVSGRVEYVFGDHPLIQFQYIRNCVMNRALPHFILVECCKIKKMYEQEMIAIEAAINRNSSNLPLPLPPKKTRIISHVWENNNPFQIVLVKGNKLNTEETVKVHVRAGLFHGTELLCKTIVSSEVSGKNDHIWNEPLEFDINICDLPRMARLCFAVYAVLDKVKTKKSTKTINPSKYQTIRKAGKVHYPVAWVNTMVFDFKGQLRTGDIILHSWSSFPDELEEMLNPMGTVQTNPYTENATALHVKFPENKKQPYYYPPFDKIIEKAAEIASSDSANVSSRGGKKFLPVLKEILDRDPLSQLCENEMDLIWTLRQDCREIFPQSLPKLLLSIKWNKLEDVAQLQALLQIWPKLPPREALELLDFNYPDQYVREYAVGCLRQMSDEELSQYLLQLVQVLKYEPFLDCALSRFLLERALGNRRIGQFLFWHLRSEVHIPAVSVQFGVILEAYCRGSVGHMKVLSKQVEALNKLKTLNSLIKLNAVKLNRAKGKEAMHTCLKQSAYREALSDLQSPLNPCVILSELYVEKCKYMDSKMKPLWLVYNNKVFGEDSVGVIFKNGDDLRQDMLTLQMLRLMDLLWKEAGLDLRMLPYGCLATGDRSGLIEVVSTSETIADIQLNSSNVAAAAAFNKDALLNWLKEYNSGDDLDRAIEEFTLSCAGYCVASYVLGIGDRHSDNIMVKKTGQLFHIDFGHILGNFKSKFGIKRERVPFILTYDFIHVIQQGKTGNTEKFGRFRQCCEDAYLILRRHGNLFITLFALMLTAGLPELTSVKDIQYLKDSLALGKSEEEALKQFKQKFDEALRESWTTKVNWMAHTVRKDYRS
T1 sequence (P27986 whole entry partner, species assumed): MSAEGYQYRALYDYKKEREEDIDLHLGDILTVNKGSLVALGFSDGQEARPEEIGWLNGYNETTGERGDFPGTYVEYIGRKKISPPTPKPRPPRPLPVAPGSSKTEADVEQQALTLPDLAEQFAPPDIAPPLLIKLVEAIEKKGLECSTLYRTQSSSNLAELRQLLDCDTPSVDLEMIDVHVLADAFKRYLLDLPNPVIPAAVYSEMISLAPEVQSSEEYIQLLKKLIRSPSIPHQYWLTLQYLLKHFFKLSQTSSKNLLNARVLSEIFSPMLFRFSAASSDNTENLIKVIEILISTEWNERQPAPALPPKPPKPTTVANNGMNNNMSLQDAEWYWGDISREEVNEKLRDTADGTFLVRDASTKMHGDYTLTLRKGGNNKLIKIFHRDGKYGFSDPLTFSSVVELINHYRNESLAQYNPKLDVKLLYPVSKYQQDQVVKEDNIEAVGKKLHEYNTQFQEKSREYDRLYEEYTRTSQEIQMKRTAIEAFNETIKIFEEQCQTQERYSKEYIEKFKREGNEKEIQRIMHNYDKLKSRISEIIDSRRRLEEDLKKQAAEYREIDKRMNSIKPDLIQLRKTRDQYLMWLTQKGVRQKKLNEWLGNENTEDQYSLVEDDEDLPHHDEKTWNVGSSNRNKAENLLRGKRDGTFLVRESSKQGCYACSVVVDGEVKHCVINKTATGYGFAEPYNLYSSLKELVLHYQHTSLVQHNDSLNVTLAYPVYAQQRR
Method: (§2) A Kinase-Glo luminescent kinase assay kit (manufactured by Promega) was used for measuring kinase activity. In this assay, the amount of ATP remaining in a solution after a kinase reaction was measured. To confirm the effect of a compound on PI3Kδ inhibition, 2.29 μg/ml recombinant PI3Kδ enzyme (Proteros, Germany) was added to a reaction mixture containing 10 mM MgCl2, 5 mM DTT, 60 μM phosphatidylinositol diphosphate (PIP2) and an assay buffer (containing 50 mM HEPES, pH7.4, 50 mM NaCl, 0.05% CHAPS) supplemented with 10 μM ATP in a final volume of 15 μl/well, in the presence and absence of compound (I), in a 384-well plate. The reaction mixture was incubated at room temperature for 2 hours. At the end of the incubation period, the same volume of Kinase-Glo plus (Promega, V3772) was added per well. After the reaction mixture was incubated at room temperature for 10 minutes in a dark place, emission was measured. The results were calculated by measuring the emission unit of the test sample relative to a blank containing no enzyme.
(§3) Using specific recombinant enzymes (Proteros, Germany) PI3Kα, PI3Kβ and PI3Kγ, inhibitory activities of compound (I) against each of the kinases were examined. The assay conditions of kinases (PI3Kα, PI3Kβ, PI3Kγ and PI3Kδ) were as follows.

[2] = tested on: HDM-induced chronic asthma (eosinophils in bronchoalveolar lavage fluid); experiment: House dust mite (HDM)-induced chronic asthma model of Balb/c mouse; format: in vivo; details: Eosinophil; bid, oral, third to fifth week, female Balb/c mouse, 48 hours after final HDM exposure
Method: House Dust Mite (HDM)-Induced Chronic Asthma Model of Balb/c Mouse
The protocol used herein was described in Am. J. Respir. Crit. Care Med., 2004; 169: 378 to 385 pages.
A female Balb/c mouse was intranasally exposed to a purified HDM (Dermatophagoides pteronyssinus) extract at maximum for 5 successive weeks at a frequency of 5 days/week (protein (25 μg) in physiological saline (20 μl)). The compound (I) was orally administered twice a day from the third week to fifth week. Forty eight hours after the final HDM exposure, the animal was euthanized and bronchoalveolar lavage fluid was collected. The cell suspension was treated, and the absolute number of eosinophils were counted.

[3] = tested on: Ovalbumin-induced airway eosinophilia; experiment: Ovalbumin-induced airway eosinophilia model in Brown Norway rat; format: in vivo; details: Eosinophil; bid, oral gavage, male Brown Norway rat, 48 hours after ovalbumin challenge; read-out: ED50 value (eosinophils in bronchoalveolar lavage fluid)
Method: Ovalbumin-Induced Airway Eosinophilia Model in Brown Norway Rat
The protocol used herein was described in Clin. Exp. Immunol., 2001; 126: 9 to 15 pages and J. Pharmacol. Exp. Ther., 2011; 337: 145 to 54 pages.
A male Brown Norway rat was sensitized by intraperitoneally injecting a suspension (in 0.9% physiological saline sterilized) of ovalbumin (1 mg) and aluminum hydroxide (100 mg) on Day 0 and Day 7. On Day 14, the compound (I) was administered to the rat by oral gavage. One hour after the oral administration, the animal was housed in a Perspex chamber and exposed to 5% ovalbumin aerosol for 10 minutes. The compound (I) was administered once or twice a day on Day 14 and Day 15. Forty eight hours after ovalbumin challenge, the animal was euthanized and bronchoalveolar lavage fluid was collected. The cell suspension was treated, and the absolute number of eosinophils were counted.

[4] = Method for examining solubility (JP1, JP2); format: physicochemical; details: pH 1.2, simulated gastric fluid, thermodynamic from solid; Solution 1 (JP1) according to the Japanese Pharmacopoeia, room temperature
Method: Method for Examining Solubility
A 10 mmol/L solution of the compound (I) in DMSO was prepared. The 10 mmol/L DMSO stock solution (100 μL) was dispensed to two labelled glass tubes: one for Solution 1 (JP1) according to the Japanese Pharmacopoeia and the other for Solution 2 (JP2) according to the Japanese Pharmacopoeia. DMSO was allowed to evaporate from each of the glass tubes, JP1 and JP2 solutions (500 μL) were added in the corresponding glass tubes. These glass tubes were ultrasonically treated for one minute and placed on a shaker for 30 minutes every 5 minutes at the intervals of 30 seconds. The glass tubes were placed in a dark place at room temperature for one hour and the solutions were filtered through a membrane filter. The filtrates were diluted 2 and 10 fold. The resultant test solutions were analyzed and quantified with UPLC (standard product: a 10 mmol/L solution in DMSO was serially diluted with a 50% aqueous acetonitrile solution to prepare two solutions: a 100 μmol/L standard solution and a 5 μmol/L standard solution) relative to the standard.

[5] = tested on: mitogen-induced IFN-γ release in mouse splenocytes; experiment: Phytohaemagglutinin (PHA) inducible interferon (IFN)-gamma release in mouse splenocytes; format: cell-based; details: Splenocyte; C57BL/6 mouse splenocytes, PHA 10 μg/ml, 48 hours, ELISA; read-out: activity (IC50), inhibition of IFN-γ release
Method: Phytohaemagglutinin (PHA) Inducible Interferon (IFN)-Gamma Release in Mouse Splenocytes
In a cell based assay system, the effect of a compound on mitogen-induced IFN-γ release in mouse splenocytes was evaluated [Blood (2010) 115: 2203 to 2213 pages; Current Protocols in Immunology (2004) 3.12.1 to 3.12.20].
Mouse splenocytes were obtained from the spleen of a C57BL/6 mouse and seeded in a 96-well tissue culture plate at a density of 250,000 cells/well. The splenocytes were treated with the compound (I), and thereafter, stimulated with PHA (10 μg/ml) for 48 hours. In this manner, an effect of compound (I) on inhibition of IFN-γ release was evaluated. The IFN-γ release in the cell culture supernatant was quantified by ELISA in accordance with the manufacturer's protocol (BD Biosciences, #555138).

PI3Kγ = molecular target: T2, PI3Kγ (Homo sapiens, UniProt P48736); experiment: In-vitro enzyme assay (Kinase-Glo luminescent kinase assay), PI3Kγ; format: biochemical; details: enzyme 2.29 μg/mL, ATP 10 μM, PIP2 60 μM, 2 hours; read-out: inhibitory activity (IC50) against PI3Kγ
T2 construct: purchased Proteros, Germany
T2 sequence (P48736 whole entry, species assumed): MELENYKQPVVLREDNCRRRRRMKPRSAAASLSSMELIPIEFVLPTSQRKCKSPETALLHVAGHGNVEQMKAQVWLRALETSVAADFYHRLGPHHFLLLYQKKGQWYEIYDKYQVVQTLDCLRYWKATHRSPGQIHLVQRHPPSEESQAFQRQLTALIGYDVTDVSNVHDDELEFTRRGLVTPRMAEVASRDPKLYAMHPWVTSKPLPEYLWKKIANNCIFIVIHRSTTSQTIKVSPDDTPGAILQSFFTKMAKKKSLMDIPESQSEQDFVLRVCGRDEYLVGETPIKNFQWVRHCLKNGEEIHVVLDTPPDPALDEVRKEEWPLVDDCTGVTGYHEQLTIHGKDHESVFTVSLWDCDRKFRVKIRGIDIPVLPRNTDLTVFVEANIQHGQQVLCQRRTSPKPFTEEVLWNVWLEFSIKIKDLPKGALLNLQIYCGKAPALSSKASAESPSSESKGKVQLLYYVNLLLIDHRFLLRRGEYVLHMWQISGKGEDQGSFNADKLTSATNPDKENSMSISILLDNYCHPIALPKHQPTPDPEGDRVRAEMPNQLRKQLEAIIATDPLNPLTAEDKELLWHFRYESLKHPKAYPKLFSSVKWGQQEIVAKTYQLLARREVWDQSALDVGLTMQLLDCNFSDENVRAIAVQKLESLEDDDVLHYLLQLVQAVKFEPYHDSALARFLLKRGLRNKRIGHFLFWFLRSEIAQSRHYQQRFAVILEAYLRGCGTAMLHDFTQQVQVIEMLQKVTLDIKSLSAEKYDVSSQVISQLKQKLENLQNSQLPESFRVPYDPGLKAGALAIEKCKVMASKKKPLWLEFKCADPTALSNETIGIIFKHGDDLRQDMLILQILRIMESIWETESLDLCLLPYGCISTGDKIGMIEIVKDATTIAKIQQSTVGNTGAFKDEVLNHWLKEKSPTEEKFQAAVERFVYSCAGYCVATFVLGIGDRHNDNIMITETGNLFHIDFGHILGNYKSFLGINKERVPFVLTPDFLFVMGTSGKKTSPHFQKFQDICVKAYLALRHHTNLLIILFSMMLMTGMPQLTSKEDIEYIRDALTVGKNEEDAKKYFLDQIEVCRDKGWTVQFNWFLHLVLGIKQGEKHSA
Method: as §2, §3

[6] = Oral bioavailability (BA) in rats; format: in vivo; details: plasma; female Wistar rat, 10.0 mg/kg oral vs 3.0 mg/kg intravenous
Method: Oral Bioavailability (BA) in Rats
as §1, with “female Wistar rat (210±10” for “male Swiss mouse (23±3”, “(2.0” for “(0.3”

PI3Kα = molecular target: T3, PI3Kα (Homo sapiens, UniProt P42336); experiment: In-vitro enzyme assay (Kinase-Glo luminescent kinase assay), PI3Kα; format: biochemical; details: enzyme 2.29 μg/mL, ATP 10 μM, PIP2 60 μM, 2 hours; read-out: inhibitory activity (IC50) against PI3Kα
T3 construct: purchased Proteros, Germany
T3 sequence (P42336 whole entry, species assumed): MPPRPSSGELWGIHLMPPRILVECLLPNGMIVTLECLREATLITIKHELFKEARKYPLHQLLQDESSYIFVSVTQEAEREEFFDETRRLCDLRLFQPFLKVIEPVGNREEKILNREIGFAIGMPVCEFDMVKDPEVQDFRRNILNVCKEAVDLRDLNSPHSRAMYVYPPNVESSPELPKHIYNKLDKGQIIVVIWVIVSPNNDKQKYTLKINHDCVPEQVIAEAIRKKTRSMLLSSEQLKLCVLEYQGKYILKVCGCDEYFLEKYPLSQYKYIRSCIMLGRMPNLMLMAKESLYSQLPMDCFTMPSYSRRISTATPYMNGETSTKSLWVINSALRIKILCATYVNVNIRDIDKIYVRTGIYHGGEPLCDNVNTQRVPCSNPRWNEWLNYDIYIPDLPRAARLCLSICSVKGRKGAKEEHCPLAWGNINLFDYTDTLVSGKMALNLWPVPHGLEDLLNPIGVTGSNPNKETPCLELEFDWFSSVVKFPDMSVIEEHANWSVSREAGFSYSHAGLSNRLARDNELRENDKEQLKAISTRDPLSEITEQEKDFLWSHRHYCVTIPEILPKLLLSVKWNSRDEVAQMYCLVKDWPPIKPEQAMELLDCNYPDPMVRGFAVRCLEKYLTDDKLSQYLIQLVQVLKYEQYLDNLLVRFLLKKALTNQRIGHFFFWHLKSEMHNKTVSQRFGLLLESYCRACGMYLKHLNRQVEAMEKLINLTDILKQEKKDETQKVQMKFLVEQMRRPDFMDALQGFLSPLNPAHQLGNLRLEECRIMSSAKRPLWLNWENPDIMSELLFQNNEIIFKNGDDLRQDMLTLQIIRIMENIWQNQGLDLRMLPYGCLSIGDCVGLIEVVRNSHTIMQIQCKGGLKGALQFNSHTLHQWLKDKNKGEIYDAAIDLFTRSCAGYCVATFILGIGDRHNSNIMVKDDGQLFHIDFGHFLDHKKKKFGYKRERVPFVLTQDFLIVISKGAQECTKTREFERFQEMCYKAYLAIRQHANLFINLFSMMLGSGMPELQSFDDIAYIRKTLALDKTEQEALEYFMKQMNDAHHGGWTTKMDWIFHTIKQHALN
T3 sequence (P27986 whole entry partner, species assumed): as the sequence (P27986 whole entry partner, species assumed) above
Method: as §2, §3

**Q.** Which results are given for `Cn1cc(-c2nc(N3CCOCC3)c3nc(C(=O)N4CCC(N5CCOCC5)CC4)[nH]c3n2)cn1` [compound (I), [2-(1-methyl-1H-pyrazol-4-yl)-6-(morpholin-4-yl)-9H-purin-8-yl][4-(morpholin-4-yl)piperidin-1-yl]methanone]?
**A.** bioavailability [1]: 100%; IC50 (PI3Kβ): ≥ 10 µM; ED50 [2]: 0.1 mg/kg; ED50 [3]: 0.3 mg/kg; solubility at 30 min [4]: ≥ 1200 µg/mL; IC50 [5]: 6 nM; IC50 (PI3Kγ): ≥ 1000 nM; bioavailability [6]: 88%; IC50 (PI3Kα): ≥ 1000 nM
